Reference: ChEMBL document CHEMBL3259641, “Identification of tertiary sulfonamides as RORc inverse agonists” (Bioorg Med Chem Lett, 2014)

How the values were obtained:
[1] = target: T1, Nuclear receptor ROR-alpha (Homo sapiens, UniProt P35398); assay: Inverse agonist activity at human GAL4-fused RORa expressed in HEK293 cells after 5 hrs by luciferase reporter gene based transcriptional assay; assay type: cell-based
T1 sequence (P35398 whole entry): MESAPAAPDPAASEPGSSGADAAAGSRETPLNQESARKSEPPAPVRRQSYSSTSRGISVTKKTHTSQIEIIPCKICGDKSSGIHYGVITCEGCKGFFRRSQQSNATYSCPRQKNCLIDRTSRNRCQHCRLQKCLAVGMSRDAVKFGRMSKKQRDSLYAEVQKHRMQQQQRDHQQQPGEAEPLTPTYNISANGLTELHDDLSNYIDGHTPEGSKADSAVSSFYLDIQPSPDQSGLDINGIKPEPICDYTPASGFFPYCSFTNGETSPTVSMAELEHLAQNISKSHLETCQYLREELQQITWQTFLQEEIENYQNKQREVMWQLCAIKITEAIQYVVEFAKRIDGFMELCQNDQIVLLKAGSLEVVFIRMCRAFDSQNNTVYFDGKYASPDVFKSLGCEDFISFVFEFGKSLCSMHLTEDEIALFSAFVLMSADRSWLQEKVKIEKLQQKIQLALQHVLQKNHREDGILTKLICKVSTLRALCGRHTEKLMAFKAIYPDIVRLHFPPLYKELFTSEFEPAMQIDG

[2] = target: T2, Nuclear receptor ROR-beta (Homo sapiens, UniProt Q92753); assay: Inverse agonist activity at human GAL4-fused RORb expressed in HEK293 cells after 5 hrs by luciferase reporter gene based transcriptional assay; assay type: cell-based
T2 sequence (Q92753 whole entry): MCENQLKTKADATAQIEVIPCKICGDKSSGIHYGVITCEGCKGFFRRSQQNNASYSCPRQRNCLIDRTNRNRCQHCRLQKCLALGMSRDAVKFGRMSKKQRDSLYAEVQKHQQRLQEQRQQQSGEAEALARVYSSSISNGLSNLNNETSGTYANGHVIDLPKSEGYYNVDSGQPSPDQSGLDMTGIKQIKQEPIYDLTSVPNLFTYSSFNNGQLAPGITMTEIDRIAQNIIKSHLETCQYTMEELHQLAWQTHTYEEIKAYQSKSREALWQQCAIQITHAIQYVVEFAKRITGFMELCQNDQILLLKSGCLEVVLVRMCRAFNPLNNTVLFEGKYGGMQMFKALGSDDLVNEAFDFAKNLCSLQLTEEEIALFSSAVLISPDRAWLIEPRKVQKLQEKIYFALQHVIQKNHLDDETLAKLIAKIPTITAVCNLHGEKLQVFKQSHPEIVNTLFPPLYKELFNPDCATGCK

[3] = target: T3, Oxysterols receptor LXR-beta (Homo sapiens, UniProt P55055); assay: Inverse agonist activity at human GAL4-fused LXRbeta expressed in HEK293 cells assessed as inhibition of T0901317-induced transcriptional activity after 5 hrs by luciferase reporter gene assay; assay type: cell-based
T3 sequence (P55055 whole entry): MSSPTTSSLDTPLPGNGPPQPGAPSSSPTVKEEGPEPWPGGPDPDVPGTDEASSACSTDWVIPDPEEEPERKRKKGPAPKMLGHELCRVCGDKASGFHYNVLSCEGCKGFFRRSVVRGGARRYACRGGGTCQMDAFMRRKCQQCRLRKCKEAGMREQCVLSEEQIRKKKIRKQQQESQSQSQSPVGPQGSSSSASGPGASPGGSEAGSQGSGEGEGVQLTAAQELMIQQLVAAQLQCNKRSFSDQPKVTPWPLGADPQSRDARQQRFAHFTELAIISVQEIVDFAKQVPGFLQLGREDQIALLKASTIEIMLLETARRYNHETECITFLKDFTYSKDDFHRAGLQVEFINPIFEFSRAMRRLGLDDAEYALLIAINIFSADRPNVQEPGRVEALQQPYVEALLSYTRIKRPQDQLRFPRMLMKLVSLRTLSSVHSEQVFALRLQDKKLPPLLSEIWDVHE

[4] = target: T4, Oxysterols receptor LXR-alpha (Homo sapiens, UniProt Q13133); assay: Inverse agonist activity at human GAL4-fused LXRalpha expressed in HEK293 cells assessed as inhibition of T0901317-induced transcriptional activity after 5 hrs by luciferase reporter gene assay; assay type: cell-based
T4 sequence (Q13133 whole entry): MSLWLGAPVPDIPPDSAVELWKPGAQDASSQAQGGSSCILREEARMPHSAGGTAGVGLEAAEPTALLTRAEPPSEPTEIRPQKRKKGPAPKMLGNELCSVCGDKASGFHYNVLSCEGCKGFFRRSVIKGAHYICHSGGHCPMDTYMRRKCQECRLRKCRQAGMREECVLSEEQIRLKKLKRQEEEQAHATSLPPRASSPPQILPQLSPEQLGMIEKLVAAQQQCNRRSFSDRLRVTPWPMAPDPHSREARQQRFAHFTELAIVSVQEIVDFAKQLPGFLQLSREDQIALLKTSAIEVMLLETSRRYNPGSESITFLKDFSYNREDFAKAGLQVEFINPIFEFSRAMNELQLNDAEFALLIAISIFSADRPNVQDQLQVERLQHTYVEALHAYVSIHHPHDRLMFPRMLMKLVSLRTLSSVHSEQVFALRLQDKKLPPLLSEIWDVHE

[5] = target: T5, Nuclear receptor ROR-gamma (Homo sapiens, UniProt P51449); assay: Displacement of [3H2]25-hydroxycholesterol from human RORc-LBD after 3 hrs by scintillation counting
T5 sequence (P51449 whole entry): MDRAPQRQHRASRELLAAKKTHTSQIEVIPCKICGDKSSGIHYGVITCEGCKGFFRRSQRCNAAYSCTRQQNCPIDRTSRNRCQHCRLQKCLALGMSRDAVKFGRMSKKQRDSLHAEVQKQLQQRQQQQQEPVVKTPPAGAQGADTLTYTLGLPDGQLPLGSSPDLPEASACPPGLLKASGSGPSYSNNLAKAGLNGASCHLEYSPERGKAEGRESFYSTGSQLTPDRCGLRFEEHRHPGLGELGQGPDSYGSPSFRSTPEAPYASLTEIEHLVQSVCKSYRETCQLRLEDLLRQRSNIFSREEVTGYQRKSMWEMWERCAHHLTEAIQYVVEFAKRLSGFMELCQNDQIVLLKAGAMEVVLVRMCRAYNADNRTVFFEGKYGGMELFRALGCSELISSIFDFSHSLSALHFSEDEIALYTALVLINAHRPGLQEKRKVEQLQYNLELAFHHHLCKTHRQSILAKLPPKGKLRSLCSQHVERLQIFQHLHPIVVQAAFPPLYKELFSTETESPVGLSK

[6] = target: T5, Nuclear receptor ROR-gamma; assay: Inverse agonist activity at an N-terminal 6xHis-GST-tag human RORc-LBD assessed as inhibition of recruitment of the SRC1 co-activator peptide after 3 hrs by time-resolved FRET assay; assay type: functional

SMILES | EC50 [1] | EC50 [2] | EC50 [3] | EC50 [4] | IC50 [5] | EC50 [6]
CC(C)CN(Cc1ccc(-c2ccc(C#N)nc2)s1)S(=O)(=O)Cc1ccccc1 |  |  |  |  | > 10 µM | 
CC(C)CN(Cc1ccc(-c2ccc(NS(C)(=O)=O)cc2)cc1)S(=O)(=O)Cc1ccccc1 | 3.8 µM | 3.7 µM | 3.8 µM | 3.6 µM |  | 
CC(C)CN(Cc1ccc(-c2ccc(C(N)=O)cc2)cc1)S(=O)(=O)Cc1ccccc1 | > 10 µM | > 10 µM | > 10 µM | > 10 µM |  | 

More lines, now with the values ahead:

EC50 [1] | EC50 [2] | EC50 [3] | EC50 [4] | IC50 [5] | EC50 [6] | SMILES
4.2 µM | 5 µM |  |  |  |  | CC(C)CN(Cc1ccc(-c2cccc(S(C)(=O)=O)c2)s1)S(=O)(=O)Cc1ccccc1
2.8 µM | 2.2 µM | 3.9 µM | 3.7 µM |  |  | CC(C)CN(Cc1ccc(-c2ccc(S(C)(=O)=O)cc2)s1)S(=O)(=O)Cc1ccccc1
 |  |  |  | > 10 µM | > 10 µM | CC(C)CN(Cc1cnc(-c2ccc(S(C)(=O)=O)cc2)s1)S(=O)(=O)Cc1ccccc1
 |  |  |  | > 10 µM | > 10 µM | CC(C)CN(Cc1cccc(-c2ccc(S(C)(=O)=O)cc2)c1)S(=O)(=O)Cc1ccccc1
